Measurements as given in PubChem BioAssay (NCI).
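Method: 48-hour compound exposure of cells in 96-well plates, five concentrations, linear interpolation of endpoints. GI50 marks 50% less growth. TGI: total growth inhibition.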

Experiments:
Test in all cases: NCI-60 cell line screen, 48 h
HCT-116 colon = tested on: HCT-116 colon
UACC-257 melanoma = tested on: UACC-257 melanoma
SK-OV-3 ovarian = tested on: SK-OV-3 ovarian
SF-295 CNS = tested on: SF-295 CNS
NCI-H460 lung = tested on: NCI-H460 lung
OVCAR-4 ovarian = tested on: OVCAR-4 ovarian
ACHN renal = tested on: ACHN renal
SW-620 colon = tested on: SW-620 colon
M14 melanoma = tested on: M14 melanoma
HCT-15 colon = tested on: HCT-15 colon

SMILES	GI50 (HCT-116 colon) [µM]	TGI (HCT-116 colon) [µM]	GI50 (UACC-257 melanoma) [µM]	TGI (UACC-257 melanoma) [µM]	GI50 (SK-OV-3 ovarian) [µM]	TGI (SK-OV-3 ovarian) [µM]	GI50 (SF-295 CNS) [µM]	TGI (SF-295 CNS) [µM]	GI50 (NCI-H460 lung) [µM]	TGI (NCI-H460 lung) [µM]	GI50 (OVCAR-4 ovarian) [µM]	TGI (OVCAR-4 ovarian) [µM]	GI50 (ACHN renal) [µM]	TGI (ACHN renal) [µM]	GI50 (SW-620 colon) [µM]	TGI (SW-620 colon) [µM]	GI50 (M14 melanoma) [µM]	TGI (M14 melanoma) [µM]	GI50 (HCT-15 colon) [µM]	TGI (HCT-15 colon) [µM]
CSc1nsc(S/C=C\C(=O)c2ccc(C)cc2)n1	13	25.7	22.6	49.2	60.7	> 100	18.2	40.4	26.7	> 73.5	20.8	> 58.9	17.6	31.8	1.3	17.8	15.5	30.8	11.9	25.3
COC(=O)C(CC(=O)c1c[nH]c2ccccc12)c1c[nH]c2ccccc12 (configuration not stated)	–	31.6	–	30.4	–	69.9	–	> 10	–	37.9	–	40.2	–	37.7	–	57.2	–	41.9	–	36.3
ClCc1ccc(C2OCCO2)cc1	–	> 52.1	–	31.6	–	> 82	–	35.5	–	39.4	–	–	–	> 62	–	34.4	–	34.3	–	34.7
CC1=NOC(=O)C1N=Nc1ccc(Br)c(C)c1 (configuration not stated)	–	33.9	–	35.4	–	97.8	–	66.4	–	58.6	–	29.3	–	32	–	34.7	–	36.1	–	41.6
N#Cc1c(C[n+]2ccccc2)c2ccccc2oc1=O	–	> 100	–	> 100	–	> 100	–	> 100	–	> 100	–	> 100	–	> 100	–	> 100	–	> 100	–	> 100
COC(=O)c1ccc(CN2C(=O)C(Cl)=C(Nc3ccc(OC)c(Cl)c3)C2=O)cc1	13.3	> 50	19.4	> 50	33.9	> 50	20.4	> 50	14.8	> 50	–	–	8.44	18.4	> 50	> 50	32.6	> 50	5.2	42.4
Nc1ccc(C(=O)CC2(O)C(=O)Nc3c(Cl)cc(Cl)cc32)cc1 (configuration not stated)	–	> 100	–	> 100	–	> 100	–	> 100	–	> 100	–	> 100	–	> 100	–	65.4	–	> 100	–	> 100
COC(=O)c1ccc2c(c1)C(=O)c1c-2n(CCCN)c(=O)c2cc(OC)c(OC)cc12	16.5	39.7	14.5	> 41.5	20.3	49.4	17.9	37.3	13	29.5	19.8	40	14.8	29.8	7.9	24.4	18.7	34.4	14.1	30.5
